Laboratory results reported in article PMC8222254, “Self-assembly of an anion receptor with metal-dependent kinase inhibition and potent in vitro anti-cancer properties” (Nature Communications, 2021).
Values joined by “and” are separate entries in the source; they are usually repeats but may differ in a detail not shown here. Identical values can stand only once. Like-named read-outs stand apart in the source and are kept apart here.

Experiments:
Assay in all cases: Chemosensitivity, 96 h continuous exposure, MTT assay;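 as to SI (NPI): adult human brain neural progenitor non-cancer cells from an epilepsy surgery patient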;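 as to Selectivity Index using the NPI non-cancer cell line: adult human brain neural progenitor non-cancer cells from an epilepsy surgery patient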
Type in all cases: cell-based, human
A549 = test system: A549;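 as to SI (NPI): adult human brain neural progenitor non-cancer cells from an epilepsy surgery patient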;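 as to Selectivity Index using the NPI non-cancer cell line: adult human brain neural progenitor non-cancer cells from an epilepsy surgery patient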
How it was run: (§1)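 Cells were seeded overnight at 37 °C (2 × 10^3/well; GBM1 at 3 × 10^3/well on poly-L-ornithine/laminin in Neurobasal with hFGF/rhEGF), then exposed to compound concentration ranges for 96 h. Viability was read by MTT (4 h, formazan in DMSO, A540) and IC50 taken from dose–response curves.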

ARPE-19 non-cancer cells = test system: ARPE-19 non-cancer cells
How it was run: as §1

BxPC3 = test system: BxPC3
How it was run: as §1

DLD-1 = test system: DLD-1
How it was run: as §1

HT-29 = test system: HT-29
How it was run: as §1

MCF10A non-cancer cells = test system: MCF10A non-cancer cells
How it was run: as §1

PSN1 = test system: PSN1
How it was run: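 Cells seeded at 2 × 10^3/well (GBM1 3 × 10^3/well) and left overnight at 37 °C, then exposed continuously for 96 h to a range of compound concentrations (final DMSO 0.2%). Viability read by MTT, absorbance at 540 nm; IC50 taken from dose-response curves as concentration reducing cell growth by 50%.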

SMILES: CC(=O)[O-].CC(=O)[O-].CC(=O)[O-].CC(=O)[O-].CC(=O)[O-].CC(=O)[O-].[Zn+2].[Zn+2].[Zn+2].c1ccc(-c2csc(NCCN(CCNc3nc(-c4ccccn4)cs3)CCNc3nc(-c4ccccn4)cs3)n2)nc1.c1ccc(-c2csc(NCCN(CCNc3nc(-c4ccccn4)cs3)CCNc3nc(-c4ccccn4)cs3)n2)nc1 [[L2Zn3]6+]
- IC50 (A549; A549, 96 h, MTT, individual run, read-out: IC50 values for each replicate): 161 nM and 257 nM and 503 nM and 692 nM
- IC50 (A549; A549, 96 h, MTT, mean of at least 3 independent experiments, read-out: Mean IC50): 403 nM
- IC50 (A549; A549, mean of replicates, read-out: Mean IC50): 403 nM
- IC50 (A549; A549, read-out: Mean IC50 values): 403 nM
- Selectivity index (ARPE19) (A549; IC50 ARPE-19 / IC50 A549): 390.20
- Selectivity index (MCF10A) (A549; IC50 MCF10A / IC50 A549): 401.09
- Selectivity Index using the NPI non-cancer cell line (A549; IC50 NP1 / IC50 A549): 19.31
- SI (ARPE19) (A549; mean IC50 ARPE-19 / mean IC50 A549): 390.20
- SI (MCF10A) (A549; mean IC50 MCF10A / mean IC50 A549): 401.09
- SI (NPI) (A549; mean IC50 NP1 / mean IC50 A549): 19.31
- Relative potency (+ anion to no anion), Ratio + anion:no anion (A549; ratio of IC50, A549): 1
- Selectivity indices relative to ARPE-19, Ratio + anion:no anion (A549; ratio of SI (ARPE-19), A549): 1
- Selectivity indices relative to MCF10A, Ratio + anion:no anion (A549; ratio of SI (MCF 10A), A549): 1
- IC50 (ARPE-19 non-cancer cells; ARPE-19, 96 h, MTT, individual run, read-out: IC50 values for each replicate): 154000 nM and 160000 nM and 144000 nM and 171000 nM
- IC50 (ARPE-19 non-cancer cells; ARPE-19, 96 h, MTT, mean of at least 3 independent experiments, read-out: Mean IC50): 157000 nM
- IC50 (ARPE-19 non-cancer cells; ARPE-19, mean of replicates, read-out: Mean IC50): 157000 nM
- IC50 (ARPE-19 non-cancer cells; ARPE-19 non-cancer, read-out: Mean IC50 values): 157000 nM
- Relative potency (+ anion to no anion), Ratio + anion:no anion (ARPE-19 non-cancer cells; ratio of IC50, ARPE-19): 1
- IC50 (BxPC3; BXPC3, mean of replicates, read-out: Mean IC50): 320 nM
- IC50 (BxPC3; BXPC3, read-out: Mean IC50 values): 320 nM
- IC50 (BxPC3; BxPC3, 96 h, MTT, individual run, read-out: IC50 values for each replicate): 228 nM and 147 nM and 595 nM and 533 nM and 171 nM and 249 nM
- IC50 (BxPC3; BxPC3, 96 h, MTT, mean of at least 3 independent experiments, read-out: Mean IC50): 320 nM
- Selectivity index (ARPE19) (BxPC3; IC50 ARPE-19 / IC50 BXPC3): 491.41
- Selectivity index (MCF10A) (BxPC3; IC50 MCF10A / IC50 BXPC3): 505.12
- Selectivity Index using the NPI non-cancer cell line (BxPC3; IC50 NP1 / IC50 BXPC3): 24.31
- SI (ARPE19) (BxPC3; mean IC50 ARPE-19 / mean IC50 BxPC3): 491.41
- SI (MCF10A) (BxPC3; mean IC50 MCF10A / mean IC50 BxPC3): 505.12
- SI (NPI) (BxPC3; mean IC50 NP1 / mean IC50 BxPC3): 24.31
- Relative potency (+ anion to no anion), Ratio + anion:no anion (BxPC3; ratio of IC50, BXPC3): 1
- Selectivity indices relative to ARPE-19, Ratio + anion:no anion (BxPC3; ratio of SI (ARPE-19), BXPC3): 1
- Selectivity indices relative to MCF10A, Ratio + anion:no anion (BxPC3; ratio of SI (MCF 10A), BXPC3): 1
- IC50 (DLD-1; DLD-1, 96 h, MTT, individual run, read-out: IC50 values for each replicate): 216 nM and 89 nM and 84 nM and 141 nM and 222 nM and 211 nM and 225 nM
- IC50 (DLD-1; DLD-1, 96 h, MTT, mean of at least 3 independent experiments, read-out: Mean IC50): 170 nM
- IC50 (DLD-1; DLD-1, mean of replicates, read-out: Mean IC50): 170 nM
- IC50 (DLD-1; DLD-1, read-out: Mean IC50 values): 170 nM
- Selectivity index (ARPE19) (DLD-1; IC50 ARPE-19 / IC50 DLD-1): 925.00
- Selectivity index (MCF10A) (DLD-1; IC50 MCF10A / IC50 DLD-1): 950.82
- Selectivity Index using the NPI non-cancer cell line (DLD-1; IC50 NP1 / IC50 DLD-1): 45.76
- SI (ARPE19) (DLD-1; mean IC50 ARPE-19 / mean IC50 DLD-1): 925.00
- SI (MCF10A) (DLD-1; mean IC50 MCF10A / mean IC50 DLD-1): 950.82
- SI (NPI) (DLD-1; mean IC50 NP1 / mean IC50 DLD-1): 45.76
- Relative potency (+ anion to no anion), Ratio + anion:no anion (DLD-1; ratio of IC50, DLD-1): 1
- Selectivity indices relative to ARPE-19, Ratio + anion:no anion (DLD-1; ratio of SI (ARPE-19), DLD-1): 1
- Selectivity indices relative to MCF10A, Ratio + anion:no anion (DLD-1; ratio of SI (MCF 10A), DLD-1): 1
- IC50 (HT-29; HT29, mean of replicates, read-out: Mean IC50): 169 nM
- IC50 (HT-29; HT29, read-out: Mean IC50 values): 169 nM
- IC50 (HT-29; HT-29, 96 h, MTT, individual run, read-out: IC50 values for each replicate): 83 nM and 161 nM and 235 nM and 184 nM and 182 nM
- IC50 (HT-29; HT-29, 96 h, MTT, mean of at least 3 independent experiments, read-out: Mean IC50): 169 nM
- Selectivity index (ARPE19) (HT-29; IC50 ARPE-19 / IC50 HT29): 930.47
- Selectivity index (MCF10A) (HT-29; IC50 MCF10A / IC50 HT29): 956.45
- Selectivity Index using the NPI non-cancer cell line (HT-29; IC50 NP1 / IC50 HT29): 46.04
- SI (ARPE19) (HT-29; mean IC50 ARPE-19 / mean IC50 HT-29): 930.47
- SI (MCF10A) (HT-29; mean IC50 MCF10A / mean IC50 HT-29): 956.45
- SI (NPI) (HT-29; mean IC50 NP1 / mean IC50 HT-29): 46.04
- Relative potency (+ anion to no anion), Ratio + anion:no anion (HT-29; ratio of IC50, HT29): 1
- Selectivity indices relative to ARPE-19, Ratio + anion:no anion (HT-29; ratio of SI (ARPE-19), HT29): 1
- Selectivity indices relative to MCF10A, Ratio + anion:no anion (HT-29; ratio of SI (MCF 10A), HT29): 1
- IC50 (MCF10A non-cancer cells; MCF10A non-cancer, read-out: Mean IC50 values): 162000 nM
- IC50 (MCF10A non-cancer cells; MCF10A, 96 h, MTT, individual run, read-out: IC50 values for each replicate): 169000 nM and 176000 nM and 140000 nM
- IC50 (MCF10A non-cancer cells; MCF10A, 96 h, MTT, mean of at least 3 independent experiments, read-out: Mean IC50): 162000 nM
- IC50 (MCF10A non-cancer cells; MCF10A, mean of replicates, read-out: Mean IC50): 162000 nM
- Relative potency (+ anion to no anion), Ratio + anion:no anion (MCF10A non-cancer cells; ratio of IC50, MCF10A): 1
- Selectivity index (ARPE19) (PSN1; IC50 ARPE-19 / IC50 PSN1): 35.39
- Selectivity index (MCF10A) (PSN1; IC50 MCF10A / IC50 PSN1): 36.38
- Selectivity Index using the NPI non-cancer cell line (PSN1; IC50 NP1 / IC50 PSN1): 1.75
- IC50 (PSN1; PSN1, 96 h, MTT, individual run, read-out: IC50 values for each replicate): 6200 nM and 4880 nM and 2250 nM
- IC50 (PSN1; PSN1, 96 h, MTT, mean of at least 3 independent experiments, read-out: Mean IC50): > 1000 nM
- IC50 (PSN1; PSN1, mean of replicates, read-out: Mean IC50): 4440 nM
- IC50 (PSN1; PSN1, read-out: Mean IC50 values): 4440 nM
- SI (ARPE19) (PSN1; mean IC50 ARPE-19 / mean IC50 PSN1): 35.39
- SI (MCF10A) (PSN1; mean IC50 MCF10A / mean IC50 PSN1): 36.38
- SI (NPI) (PSN1; mean IC50 NP1 / mean IC50 PSN1): 1.75
- Relative potency (+ anion to no anion), Ratio + anion:no anion (PSN1; ratio of IC50, PSN1): 1
- Selectivity indices relative to ARPE-19, Ratio + anion:no anion (PSN1; ratio of SI (ARPE-19), PSN1): 1
- Selectivity indices relative to MCF10A, Ratio + anion:no anion (PSN1; ratio of SI (MCF 10A), PSN1): 1
